Measurements as given in patent US11207285B2, “Diabetes treatment regimens using alpha, alpha-substituted long-chain amphipathic carboxylates” (SYNDROMEX LTD., priority 2016, dated 2021).

Tests used:
Forkhead box O1 (FoxO1) = Forkhead box O1 (FoxO1) (Homo sapiens, UniProt Q12778); assay: transcriptional activity of FoxO1
animal models = assay: plasma lipid lowering in animal models; assay type: in vivo
[1] = test system: AMP-activated protein kinase (AMPK); assay: modulation of AMPK activity
[2] = test system: mitochondrial permeability transition pore (PTP); assay: gating of mitochondrial PTP; conditions: mild decoupling of mitochondrial oxidative phosphorylation
[3] = test system: animal models for T2D (e.g., db/db rats, rodents maintained on high-fat diet); assay: insulin sensitization, glucose lowering and energy expenditure in animal models for T2D; assay type: in vivo
[4] = test system: animal models for T2D (e.g., rodents maintained on high-fat diet); assay: as above; assay type: in vivo
[5] = biological target: T1, Hepatocyte nuclear factor 4-alpha (HNF4α) (Homo sapiens, UniProt P41235); assay: transcriptional activity of HNF4α
T1 sequence (P41235 1-474): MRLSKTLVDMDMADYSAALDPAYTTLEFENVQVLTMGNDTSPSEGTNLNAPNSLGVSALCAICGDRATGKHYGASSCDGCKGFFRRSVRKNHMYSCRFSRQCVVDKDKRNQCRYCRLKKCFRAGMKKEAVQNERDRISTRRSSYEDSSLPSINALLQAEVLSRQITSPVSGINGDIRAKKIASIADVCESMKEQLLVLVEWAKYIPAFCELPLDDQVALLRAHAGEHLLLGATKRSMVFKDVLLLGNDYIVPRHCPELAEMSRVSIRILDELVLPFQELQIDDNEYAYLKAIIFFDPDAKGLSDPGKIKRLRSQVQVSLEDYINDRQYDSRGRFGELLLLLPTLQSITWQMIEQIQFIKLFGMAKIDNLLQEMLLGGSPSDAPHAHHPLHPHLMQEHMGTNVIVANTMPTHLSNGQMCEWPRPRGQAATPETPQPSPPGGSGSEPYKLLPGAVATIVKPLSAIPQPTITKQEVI

[6] = test system: fully differentiated 3T3L1 adipocytes; assay: glucose uptake in 3T3L1 adipocytes; assay type: cell-based; conditions: insulin as positive control
Method: (§1) The compound 2,2,15,15-tetramethylhexadecane-1,16-dioic acid (also designated M16αα), and also the compounds […] (M18αα) and 2,2,19,19-tetramethyl-[…]-1,20-dioic acid (M20αα), were tested for their effect on glucose uptake and production, and the expression of glucose- and lipid-related genes in in vitro models. […] Inhibition of glucose production was tested in HepG2 human liver cells.

[7] = biological target: Signal transducer and activator of transcription 3 (STAT3) (Homo sapiens, UniProt P40763); assay: transcriptional activity of STAT3
Sequence of Signal transducer and activator of transcription 3 (STAT3) (P40763 whole entry, species assumed): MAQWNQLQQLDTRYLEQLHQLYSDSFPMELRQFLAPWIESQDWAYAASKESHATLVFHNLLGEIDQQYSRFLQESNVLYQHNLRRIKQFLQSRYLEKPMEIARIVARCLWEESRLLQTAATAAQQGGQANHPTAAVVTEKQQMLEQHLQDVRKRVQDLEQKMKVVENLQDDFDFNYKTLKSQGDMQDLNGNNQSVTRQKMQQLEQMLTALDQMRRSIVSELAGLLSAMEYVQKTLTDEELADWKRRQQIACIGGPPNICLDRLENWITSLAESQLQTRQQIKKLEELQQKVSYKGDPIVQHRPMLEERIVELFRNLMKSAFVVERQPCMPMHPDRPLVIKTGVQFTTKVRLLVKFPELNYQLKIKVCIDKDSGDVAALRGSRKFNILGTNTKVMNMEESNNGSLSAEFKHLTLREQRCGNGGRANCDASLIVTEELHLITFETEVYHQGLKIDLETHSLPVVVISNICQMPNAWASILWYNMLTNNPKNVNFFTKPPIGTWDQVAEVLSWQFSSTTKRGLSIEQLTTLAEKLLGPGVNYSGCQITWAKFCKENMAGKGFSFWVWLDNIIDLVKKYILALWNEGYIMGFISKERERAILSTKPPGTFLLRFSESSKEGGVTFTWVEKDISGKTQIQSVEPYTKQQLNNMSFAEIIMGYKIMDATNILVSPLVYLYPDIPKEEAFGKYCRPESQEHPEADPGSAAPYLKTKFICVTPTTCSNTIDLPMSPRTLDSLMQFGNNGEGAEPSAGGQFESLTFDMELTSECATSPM

HepG2 human liver cells = assay: inhibition of glucose production in HepG2 cells; assay type: cell-based
Method: as §1

[8] = test system: Type 2 Diabetes Mellitus (T2D) patients; assay: 4-week M16αα study in T2D patients, safety and tolerability; assay type: in vivo, human; conditions: 40 mg/day oral, 28 days
Method: T2D patients, non-treated or treated with SoC antidiabetic drugs as outlined below, were screened for eligibility (inclusion/exclusion according to criteria detailed below), followed by being randomly allocated to receive once daily either add-on M16αα (40 mg M16αα plus 130 mg microcrystalline cellulose in gelatin capsules) or add-on placebo (130 mg microcrystalline cellulose in gelatin capsules), in addition to the SoC anti-diabetic treatment they have been receiving regularly. One patient was not under SoC anti-diabetic drug treatment. Sixteen (16) patients were randomized to M16αα treatment and 3 patients were randomized to placebo treatment. Patients randomized to M16αα treatment were dosed for 28 days with add-on M16αα in double-blinded manner, followed by 4-week recovery period using add-on placebo in a single-blinded manner. Patients randomized to placebo treatment were dosed for 28 days with add-on placebo in double-blinded manner.
The primary safety endpoint was the frequency, severity, and duration of adverse events (AEs), including clinically significant laboratory abnormalities after administration of M16αα.
Safety was evaluated on the basis of the following assessments: Adverse events (AEs)—continuous (starting from informed consent signature until end of study); vital signs; 12-lead ECG; physical examination; safety laboratory evaluations (blood and urine). […]

[9] = test system: genes that control liver gluconeogenesis and lipid synthesis; assay: expression of glucose- and lipid-related genes in in vitro models; assay type: cell-based
Method: as §1

Sequence of Forkhead box O1 (FoxO1) (Q12778 whole entry, species assumed): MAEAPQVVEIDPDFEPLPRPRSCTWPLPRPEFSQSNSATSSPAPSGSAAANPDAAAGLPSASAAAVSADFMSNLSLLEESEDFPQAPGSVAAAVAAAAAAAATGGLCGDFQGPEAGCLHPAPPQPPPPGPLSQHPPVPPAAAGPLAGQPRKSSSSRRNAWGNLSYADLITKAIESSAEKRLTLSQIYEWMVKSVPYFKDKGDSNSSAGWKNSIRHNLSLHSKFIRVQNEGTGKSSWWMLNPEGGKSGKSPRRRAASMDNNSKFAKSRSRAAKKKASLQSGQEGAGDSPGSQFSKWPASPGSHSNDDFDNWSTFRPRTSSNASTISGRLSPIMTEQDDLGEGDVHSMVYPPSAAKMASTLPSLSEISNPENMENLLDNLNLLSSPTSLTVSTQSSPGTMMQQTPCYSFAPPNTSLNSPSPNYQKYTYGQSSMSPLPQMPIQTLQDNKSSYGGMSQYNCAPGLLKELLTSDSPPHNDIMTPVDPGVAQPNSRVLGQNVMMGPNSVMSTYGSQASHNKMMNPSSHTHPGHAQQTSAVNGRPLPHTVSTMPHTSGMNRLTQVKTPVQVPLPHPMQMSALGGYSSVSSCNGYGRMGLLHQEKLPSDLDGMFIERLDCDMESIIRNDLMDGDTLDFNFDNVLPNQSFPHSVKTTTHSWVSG

transcriptional activity of FoxO1 (Forkhead box O1 (FoxO1)): suppressing
AMPK activity [1]: activating
transcriptional activity of HNF4α [5]: suppressing
transcriptional activity of STAT3 [7]: suppressing
SMILES: CC(C)(CCCCCCCCCCCCC(C)(C)C(=O)O)C(=O)O [M16αα, 2,2,15,15-tetramethyl-hexadecane-1,16-dioic acid]
plasma LDL-cholesterol (animal models): statin-like efficacy in lowering plasma LDL-cholesterol
plasma triglycerides (animal models): robust decrease of plasma triglycerides
gating of mitochondrial PTP [2]: induces low-conductance gating of mitochondrial PTP
insulin-sensitizing and glucose-lowering efficacy [3]: potent insulin-sensitizing and glucose-lowering efficacy
energy expenditure [4]: increased energy expenditure
glucose uptake [6]: increase glucose uptake
hepatic glucose production (HepG2 human liver cells): significant or full inhibition
serious adverse events (SAE) [8]: No serious adverse events (SAE) were recorded
tolerability and safety [8]: well tolerated and safe
expression of genes that control liver gluconeogenesis and lipid synthesis [9]: effective in inhibiting
